# Source: PMC10065799, “High-throughput profiling of sequence recognition by tyrosine kinases and SH2 domains using bacterial peptide display” (eLife, 2023)
# T1: c-Abl kinase domain (Mus musculus, UniProt P00520)
# T1 sequence (P00520 242-493 limits assumed): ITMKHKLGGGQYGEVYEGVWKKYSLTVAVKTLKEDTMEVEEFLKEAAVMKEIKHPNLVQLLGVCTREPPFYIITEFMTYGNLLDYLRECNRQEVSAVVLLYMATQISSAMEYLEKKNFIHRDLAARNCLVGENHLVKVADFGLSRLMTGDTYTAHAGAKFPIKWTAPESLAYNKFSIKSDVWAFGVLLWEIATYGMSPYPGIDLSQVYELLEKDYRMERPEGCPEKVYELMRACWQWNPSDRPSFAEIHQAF
# Columns and labels:
# c-Abl kinase domain [1] = biological target: T1, c-Abl kinase domain; assay: ADP-Quest continuous fluorimetric kinase assay (Michaelis-Menten parameters and initial rates); type: biochemical; settings: c-Abl kinase domain 10 nM, 100 μM ATP, 37 °C, three to five replicates, error = standard error of global Michaelis-Menten fit
# c-Src kinase domain [2] = biological target: T2, c-Src kinase domain (Homo sapiens, UniProt P12931); assay: RP-HPLC assay to measure peptide phosphorylation kinetics; type: biochemical; settings: purified peptide substrate
# c-Src kinase domain [3] = biological target: T2, c-Src kinase domain; assay: pTyr-Var library bacterial peptide display kinase screen (enrichment scores); type: biochemical; settings: for Screen: sheet "Src";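 for AncSZ hit?: Hit requires p below 0.05 and at least twofold variant vs reference change plus filters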;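 for Fer hit?: Hit requires p below 0.05 and at least twofold variant vs reference change plus filters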;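 for Fyn hit?: Hit requires p below 0.05 and at least twofold variant vs reference change plus filters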;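 for c-Abl hit?: Hit requires p below 0.05 and at least twofold variant vs reference change plus filters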
# EPHB1 kinase domain = assay: as above; type: biochemical, human; settings: for Screen: sheet EPHB1, effect of the variant peptide relative to its reference peptide in the pTyr-Var library screen (enrichment scores); for Screen (variant relative to reference peptide, measured in the pTyr-Var library screen): sheet "EPHB1", variant seq vs reference seq, bacterial peptide display enrichment
# Fer kinase domain = assay: as above; type: biochemical, mouse; settings: for Screen: sheet "Fer"
# c-Abl kinase domain [4] = biological target: T1, c-Abl kinase domain; assay: as above; type: biochemical; settings: for Screen: fig5-data2, sheet "Abl", Screen for the variant/reference peptide pair
# EPHB2 kinase domain = assay: as above; type: biochemical, human; settings: for Screen: sheet EPHB2, effect of variant peptide relative to its reference peptide in the pTyr-Var library screen (enrichment scores)
# Fyn kinase domain = assay: as above; type: biochemical, human
# FGFR3 kinase domain = assay: as above; type: biochemical, human
# Jak2 = assay: as above; type: biochemical, human
# FGFR1 kinase domain = assay: as above; type: biochemical, human
# AncSZ kinase domain = assay: as above; type: biochemical
# c-Src SH2 domain = c-Src SH2 domain (Homo sapiens, UniProt P12931); assay: pTyr-Var library SH2 domain screen with SH2-dynabeads (enrichment scores); settings: sheet c-Src
# Grb2 SH2 domain = assay: as above
# SHP2 C-SH2 domain = assay: as above
# MERTK kinase domain = assay: pTyr-Var library bacterial peptide display kinase screen (enrichment scores); type: biochemical, human
# Hck kinase domain = assay: as above; type: biochemical, human
# Fes = assay: as above; type: biochemical
# [5] = biological target: human c-Src kinase domain (residues 260-528) (human) (UniProt P12931)
# [6] = effect of the variant peptide relative to its reference peptide in the pTyr-Var library screen
# [7] = value of the variant peptide against its reference peptide in the pTyr-Var library screen with Fer
# [8] = mean of log2 of enrichment over R1-R4
# [9] = pTyr-Var library, enrichment score, replicate 1
# [10] = pTyr-Var library, enrichment score, replicate 3
# [11] = pTyr-Var library, enrichment score, replicate 4
# [12] = variant versus reference peptide
# [13] = variant versus reference peptide, significant hit TRUE/FALSE
# [14] = mean of log2(variant) minus mean of log2(reference)
# [15] = mean of log2 enrichment of variant peptide, n = 5
# [16] = mean of log2 enrichment of variant peptide, n = 4
# [17] = variant peptide versus its reference peptide in the pTyr-Var library screen
# [18] = variant peptide relative to its reference peptide, pTyr-Var library screen enrichment
molecule,measurement,setting,value
"Ac-GAPEVIYATPGAKKKG-NH2 [AblTide (2014), previously reported c-Abl consensus substrate]",Km,c-Abl kinase domain [1],35 ± 8 µM
same,kcat,c-Abl kinase domain [1],2.5±0.2 s^–1
"Ac-LERFIYNREEL-NH2 [HLA-DPB1_Y59_F64L_YF, pTyr-Var library variant peptide, non-canonical c-Src substrate]",Phosphorylation Rate,c-Src kinase domain [2],0.258 s⁻¹
same,Screen,c-Src kinase domain [3]; [6],0.2529
RNEAFYDTFST [EFCAB3_Y372_S370A],Screen,EPHB1 kinase domain,-3.139
same,Screen,Fer kinase domain; [7],-0.7665
same,Screen,c-Abl kinase domain [4]; pTyr-Var library,0.8648
same,Screen,EPHB2 kinase domain,-2.77
same,Screen,c-Src kinase domain [3]; [6],-0.05343
"Ac-GPDEPIYDMFPFKKKG-NH2 [Src Consensus (C-2P), Src Consensus variant with –2 Pro]",Phosphorylation Rate,c-Src kinase domain [2],12.667 s⁻¹
Ac-AGQEKYSAMRD-NH2 [HRAS-Y64-E63K],Phosphorylation Rate,c-Src kinase domain [2],0.027 s⁻¹
DRVALYVAREG [AACS_Y117_I118V],Fyn mean of log2(enrichment),Fyn kinase domain; [8],-1.274
same,Fyn enrich. R1,Fyn kinase domain; [9],0.7923
same,Fyn enrich. R3,Fyn kinase domain; [10],0.2683
same,Fyn enrich. R4,Fyn kinase domain; [11],0.2456
same,Fyn difference (mean log2 variant - mean log2 reference),Fyn kinase domain; [12],0.04124
same,Fyn hit?,Fyn kinase domain; [13],FALSE
same,difference,FGFR3 kinase domain; [14],-0.06288
same,mean of log2(variant),FGFR3 kinase domain; [15],-0.601
same,difference,EPHB1 kinase domain; [14],-0.2676
same,mean of log2(variant),EPHB1 kinase domain; [16],-0.8888
same,Jak2 mean of log2(enrichment),Jak2; mean of log2 of enrichment over R1-R3,-0.2901
same,Jak2 enrich. R1,Jak2; [9],0.73
same,Jak2 enrich. R3,Jak2; [10],0.9423
same,Jak2 difference (mean log2 variant - mean log2 reference),Jak2; [12],-0.3116
same,Jak2 hit?,Jak2; [13],FALSE
same,difference,FGFR1 kinase domain; [14],-0.08555
same,mean of log2(variant),FGFR1 kinase domain; [15],-1.047
same,AncSZ mean of log2(enrichment),AncSZ kinase domain; mean of log2 of enrichment over R1-R5,-0.4041
same,AncSZ enrich. R1,AncSZ kinase domain; [9],1.153
same,AncSZ enrich. R3,AncSZ kinase domain; [10],0.7411
same,AncSZ enrich. R4,AncSZ kinase domain; [11],0.5554
same,AncSZ enrich. R5,"AncSZ kinase domain; pTyr-Var library, enrichment score, replicate 5",0.4897
same,AncSZ difference (mean log2 variant - mean log2 reference),AncSZ kinase domain; [12],-0.326
same,AncSZ hit?,AncSZ kinase domain; [13],FALSE
same,Fer mean of log2(enrichment),Fer kinase domain; [8],-1.031
same,Fer enrich. R1,Fer kinase domain; [9],0.6342
same,Fer enrich. R3,Fer kinase domain; [10],0.3786
same,Fer enrich. R4,Fer kinase domain; [11],0.4545
same,Fer difference (mean log2 variant - mean log2 reference),Fer kinase domain; [12],0.05113
same,Fer hit?,Fer kinase domain; [13],FALSE
same,difference,c-Src SH2 domain; [14],-0.4301
same,mean of log2(variant),"c-Src SH2 domain; mean of log2 enrichment of variant peptide, R1-R3",-1.56
same,c-Abl mean of log2(enrichment),c-Abl kinase domain [4]; [8],-0.7858
same,c-Abl enrich. R1,c-Abl kinase domain [4]; [9],0.555
same,c-Abl enrich. R3,c-Abl kinase domain [4]; [10],0.7635
same,c-Abl enrich. R4,c-Abl kinase domain [4]; [11],0.4657
same,c-Abl hit?,c-Abl kinase domain [4]; [13],FALSE
same,difference,EPHB2 kinase domain; [14],0.3459
same,mean of log2(variant),EPHB2 kinase domain; [16],-0.6512
same,difference,"Grb2 SH2 domain; Grb2 SH2, mean of log2(variant) minus mean of log2(reference)",-0.1132
same,mean of log2(variant),"Grb2 SH2 domain; Grb2 SH2, mean of log2 enrichment of variant, R1-R3",-0.29
same,hit?,"Grb2 SH2 domain; Grb2 SH2, variant versus reference significant hit call",FALSE
same,difference,"SHP2 C-SH2 domain; SHP2-C SH2, mean of log2(variant) minus mean of log2(reference)",-0.5364
same,mean of log2(variant),"SHP2 C-SH2 domain; SHP2-C SH2, mean of log2 enrichment of variant, R1-R3",-0.6877
same,hit?,"SHP2 C-SH2 domain; SHP2-C SH2, variant versus reference significant hit call",FALSE
same,difference,MERTK kinase domain; [14],-0.4526
same,mean of log2(variant),MERTK kinase domain; [16],-1.84
same,Hck mean of log2(enrichment),"Hck kinase domain; mean of log2(variant) / mean of log2(reference), R1-R4",0.6801
same,Hck enrich. R1,Hck kinase domain; [9],1.248
same,Hck enrich. R3,Hck kinase domain; [10],0.3794
same,Hck enrich. R4,Hck kinase domain; [11],0.204
same,Hck difference (variant - reference),Hck kinase domain; [12],0.1112
same,Hck hit?,Hck kinase domain; [13],FALSE
same,c-Src mean of log2(enrichment),c-Src kinase domain [3]; [8],-1.464
same,c-Src enrich. R1,c-Src kinase domain [3]; [9],0.3697
same,c-Src enrich. R3,c-Src kinase domain [3]; [10],0.2802
same,c-Src enrich. R4,c-Src kinase domain [3]; [11],0.4218
same,c-Src difference (mean log2 variant - mean log2 reference),c-Src kinase domain [3]; [12],-0.2397
same,c-Src hit?,c-Src kinase domain [3]; [13],FALSE
same,Fes mean of log2(enrichment),Fes; mean of log2 of enrichment over R1-R6,-0.04177
same,Fes difference (mean log2 variant - mean log2 reference),Fes; [12],-0.2234
Ac-WDLSEYSFKDP-NH2 [ITGA3_Y237_YF],Phosphorylation Rate,c-Src kinase domain [2],0.555 s⁻¹
"Ac-GPDESIYDMFPFKKKG-NH2 [Src Consensus (C-2S), Src Consensus variant with –2 Ser]",Phosphorylation Rate,c-Src kinase domain [2],5.171 s⁻¹
IVEELYAIPPD [PEAK1_Y797_S792I],Screen,EPHB1 kinase domain,0.4436
same,Screen,Fer kinase domain; [7],0.2222
same,Screen,EPHB2 kinase domain,-0.0205
same,Screen,c-Src kinase domain [3]; [17],-0.02431
HNLPIYEGFAL [ACTA1_Y168_V165L_YF],Screen,EPHB1 kinase domain,-0.3324
same,Screen,Fer kinase domain; [7],-0.04484
same,Screen,c-Abl kinase domain [4]; pTyr-Var library,0.278
same,Screen,EPHB2 kinase domain,-0.1826
same,Screen,c-Src kinase domain [3]; [6],-0.1626
RWQQLYDTLNA [EIF3M_Y351_Q346R],Screen,EPHB1 kinase domain,-0.05321
same,Screen,Fer kinase domain; [7],-0.4426
same,Screen,EPHB2 kinase domain,0.365
same,Screen,c-Src kinase domain [3]; [6],-0.1
VFLGAYDCFLP [SLC22A5_Y486_R488C_YF],"Screen (variant relative to reference peptide, measured in the pTyr-Var library screen)",EPHB1 kinase domain,1.419
same,Screen,Fer kinase domain; [18],1.979
same,Screen,EPHB2 kinase domain,1.473
same,Screen,c-Src kinase domain [3]; [17],0.189
FQEPVYSVAFS [TBL1X_Y509_H504Y_YF],"Screen (variant relative to reference peptide, measured in the pTyr-Var library screen)",EPHB1 kinase domain,-0.4923
same,Screen,Fer kinase domain; [18],-0.4973
same,Screen,EPHB2 kinase domain,-0.3359
same,Screen,c-Src kinase domain [3]; [17],-0.2752
Ac-GAEEEIYGIFGAKKKG-NH2 [SrcTide (2014) peptide Ac-…-NH2],"KM (μM) of phosphorylation, Michaelis-Menten analysis, ADP-Quest assay",[5],7 µM
Ac-GAEEEIYGEFEAKKKG-NH2 [SrcTide (1995) peptide Ac-…-NH2],"KM (μM) of phosphorylation, Michaelis-Menten analysis, ADP-Quest assay",[5],64 µM
